Experimental data as given in publication PMC6214665 (Bioorganic & medicinal chemistry letters, 2017).

Experiments:
[1] = MRC5 cell proliferation counterscreen; assay type: cell-based; conditions: human, MRC5 cells, MRC5 EC50, cytotoxicity, human cell line
[2] = tested on: T. brucei; assay: T. brucei cell proliferation assay; assay type: cell-based, Trypanosoma brucei
[3] = tested on: T. cruzi; assay: T. cruzi cell proliferation assay; assay type: cell-based; conditions: Trypanosoma cruzi, read-out: T. cruzi EC50, mean ± SD; n = 4

Row | SMILES | EC50 [1] [µM] | other results
1 | O=c1nc(-c2ccccc2)c2cc(-c3ccncc3)ccc2[nH]1 [Compound 1] | > 50 | 
2 | Cc1cc(-c2ccc3[nH]c(=O)nc(-c4ccccc4)c3c2)ccn1 [Compound 5] | > 50 | fold loss of potency in T. brucei assay ([2]; relative to 1): < 3 fold
3 | O=c1nc(-c2ccccc2)c2cc(-c3cccnc3)ccc2[nH]1 [Compound 6] | > 50 | 
4 | Cc1ccc(-c2ccc3[nH]c(=O)nc(-c4ccccc4)c3c2)cn1 [Compound 7] | > 50 | 
5 | Cc1ccncc1-c1ccc2[nH]c(=O)nc(-c3ccccc3)c2c1 [Compound 8] | > 50 | EC50 [3]: < 10 µM
6 | Cc1cncc(-c2ccc3[nH]c(=O)nc(-c4ccccc4)c3c2)c1 [Compound 9] | > 50 | EC50 [3]: < 10 µM
7 | O=c1nc(-c2ccccc2)c2cc(-c3ccc(C(F)(F)F)nc3)ccc2[nH]1 [Compound 10] | > 50 | 
8 | CN(C)c1ccc(-c2ccc3[nH]c(=O)nc(-c4ccccc4)c3c2)cn1 [Compound 11] | > 50 | 
9 | O=c1nc(-c2ccccc2)c2cc(-c3ccc(N4CCCC4)nc3)ccc2[nH]1 [Compound 12] | > 50 | EC50 [3]: < 10 µM
10 | O=c1nc(-c2ccccc2)c2cc(-c3cnc4ccccc4c3)ccc2[nH]1 [Compound 13] | > 50 | EC50 [3]: < 10 µM
11 | O=c1nc(-c2ccccc2)c2cc(-c3ccccc3)ccc2[nH]1 [Compound 14] | > 50 | fold loss of potency in T. brucei assay ([2]; relative to 1): ~ 2.5 fold
12 | O=c1nc(-c2ccccc2)c2cc(-c3ccccc3F)ccc2[nH]1 [Compound 15] | > 50 | EC50 [3]: < 10 µM
13 | O=c1nc(-c2ccccc2)c2cc(-c3cccc(F)c3)ccc2[nH]1 [Compound 16] | > 50 | EC50 [3]: < 10 µM
14 | O=c1nc(-c2ccccc2)c2cc(-c3ccc(F)cc3)ccc2[nH]1 [Compound 17] | > 50 | EC50 [3]: < 10 µM
15 | N#Cc1ccc(-c2ccc3[nH]c(=O)nc(-c4ccccc4)c3c2)cc1 [Compound 18] | > 50 | 
16 | CNC(=O)c1cccc(-c2ccc3[nH]c(=O)nc(-c4ccccc4)c3c2)c1 [Compound 19] | > 50 | 
17 | O=c1nc(-c2ccccc2)c2cc(-c3cccc(N4CCOCC4)c3)ccc2[nH]1 [Compound 20] | > 50 | 
18 | O=c1nc(-c2ccccc2)c2cc(-c3ccc(N4CCOCC4)cc3)ccc2[nH]1 [Compound 21] |  | EC50 [3]: < 10 µM
19 | O=c1nc(-c2ccccc2)c2cc(-c3cncnc3)ccc2[nH]1 [Compound 22] | > 50 | 
20 | Cc1noc(C)c1-c1ccc2[nH]c(=O)nc(-c3ccccc3)c2c1 [Compound 23] | > 50 | 

Row | SMILES | EC50 [1] [µM] | other results
21 | O=c1nc(-c2ccccc2)c2cc(-c3cc[nH]n3)ccc2[nH]1 [Compound 24] | > 50 | 
22 | O=c1nc(-c2ccccc2)c2cc(-c3cn[nH]c3)ccc2[nH]1 [Compound 25] |  | EC50 [3]: < 10 µM
23 | Cn1cc(-c2ccc3[nH]c(=O)nc(-c4ccccc4)c3c2)cn1 [Compound 26] | > 50 | 
24 | Cn1nccc1-c1ccc2[nH]c(=O)nc(-c3ccccc3)c2c1 [Compound 27] | > 50 | 
25 | O=c1nc(-c2ccccc2)c2ccc(-c3ccncc3)cc2[nH]1 [Compound 28] | > 50 | 
26 | O=c1nc(-c2ccccc2)c2ccc(-c3cccnc3)cc2[nH]1 [Compound 29] | > 50 | 
27 | O=c1nc(-c2ccccc2)c2ccc(-c3cncnc3)cc2[nH]1 [Compound 30] | > 50 | 
28 | O=c1nc(-c2ccccc2)c2ccc(-c3cccc(N4CCOCC4)c3)cc2[nH]1 [Compound 31] | > 50 | 
29 | O=c1nc(-c2ccccc2)c2ccc(-c3ccc(F)cc3)cc2[nH]1 [Compound 32] | > 50 | 
30 | Cn1ccc(-c2cccc3[nH]c(=O)nc(-c4ccccc4)c23)n1 [Compound 33] | > 50 | 
31 | N#Cc1ccc(-c2cccc3[nH]c(=O)nc(-c4ccccc4)c23)cc1 [Compound 34] | > 50 | 
32 | Cc1ccc2[nH]c(=O)nc(-c3ccccc3)c2c1 [Compound 35] | > 50 | 
33 | CN1CCN(c2ccc3[nH]c(=O)nc(-c4ccccc4)c3c2)CC1 [Compound 36] | > 50 | 
34 | O=c1nc(-c2ccccc2)c2cc(N3CCNCC3)ccc2[nH]1 [Compound 37] | > 25 | 
35 | O=c1nc(-c2ccccc2)c2cc(N3CCOCC3)ccc2[nH]1 [Compound 38] | > 50 | 
36 | Cc1ccccc1-c1nc(=O)[nH]c2ccc(-c3cc[nH]n3)cc12 [Compound 39] | > 50 | EC50 [3]: < 10 µM
37 | COc1ccccc1-c1nc(=O)[nH]c2ccc(-c3cc[nH]n3)cc12 [Compound 40] | > 50 | 
38 | O=c1nc(C2CCCCC2)c2cc(-c3cc[nH]n3)ccc2[nH]1 [Compound 41] | > 50 | 
39 | O=c1nc(C2CCC2)c2cc(-c3cc[nH]n3)ccc2[nH]1 [Compound 42] | > 50 | fold loss of potency in T. brucei assay ([2]; relative to C4-phenyl analog 24): ~6 fold
